US4450269A, “Mono-5-substituted-3-chloro-4H-1,2,6-thiadiazin-4-one antifungal agents” (FMC Corporation, priority 1980, dated 1984)

How the values were obtained:
[1] = tested on: Pyricularia oryzae; assay: microbe, parasite or virus in culture; type: cell-based; conditions: for inhibition at 5 ppm / inhibition at 10 ppm / inhibition at 20 ppm / inhibition at 40 ppm: Pyricularia oryzae, 72 h; for inhibition at 5 ppm: read-out: Percent Fungus Growth Inhibition, PO, 5 ppm, 72 hours; for inhibition at 10 ppm: read-out: Percent Fungus Growth Inhibition, PO, 10 ppm, 72 hours; for inhibition at 20 ppm: read-out: Percent Fungus Growth Inhibition, PO, 20 ppm, 72 hours; for inhibition at 40 ppm: read-out: Percent Fungus Growth Inhibition, PO, 40 ppm, 72 hours; for Percent Fungus Growth Inhibition: PO, 72 hours
[2] = tested on: Venturia inaequalis; assay: Spore germination test; type: cell-based; conditions: VI, 48 hours
Outline: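 Compound from acetone stock mixed into water agar at 40, 10, 2.5 and 1 ppm; plated quadrants inoculated with spore suspension in sterile water. Incubation 48 hours at 24° C, then percentage of germinated spores counted and converted to a germination rating.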

Structure (SMILES)	inhibition at 5 ppm [1] [%]	inhibition at 10 ppm [1] [%]	inhibition at 20 ppm [1] [%]	inhibition at 40 ppm [1] [%]	Spore Germination Rating ([2]; 1.0 ppm)	Spore Germination Rating ([2]; 2.5 ppm)	Spore Germination Rating ([2]; 10 ppm)	Spore Germination Rating ([2]; 40 ppm)	Percent Fungus Growth Inhibition ([1]; 5 ppm) [%]	Percent Fungus Growth Inhibition ([1]; 10 ppm) [%]	Percent Fungus Growth Inhibition ([1]; 20 ppm) [%]
Cc1ccc(Oc2nsnc(Cl)c2=O)c(Br)c1 [Compound 57, 3-[(2-bromo-4-methyl)-phenoxy]-5-chloro-4H--1,2,6-thiadiazin-4-one]	46	61	71	61	2 (40-60)	0 (0-10)	0 (0-10)	0 (0-10)	–	–	–
Cc1cc(Oc2nsnc(Cl)c2=O)cc(C)c1Br [Compound 60, 3-[(4-bromo-3,5-dimethyl)-phenoxy]-5-chloro-4H--1,2,6-thiadiazin-4-one]	32	43	43	64	2 (40-60)	1 (10-40)	0 (0-10)	0 (0-10)	–	–	–
Nc1ccc(Oc2nsnc(Cl)c2=O)cc1 [Compound 26, 5-(4-aminophenoxy)-3-chloro-4H--1,2,6-thiadiazin-4-one]	–	–	–	100	4 (80-100)	4 (80-100)	4 (80-100)	1 (10-40)	0	48	90
O=c1c(Cl)nsnc1Oc1c(Cl)c(Cl)c(Cl)c(Cl)c1Cl [Compound 31, 3-chloro-5-(pentachlorophenoxy)-4H--1,2,6-thiadiazine-4-one]	33	48	62	57	0 (0-10)	0 (0-10)	0 (0-10)	0 (0-10)	–	–	–
O=c1c(Cl)nsnc1Oc1ccc(Br)cc1 [Compound 15, 3-chloro-5-(4-bromophenoxy)-4H--1,2,6-thiadiazin-4-one]	12	19	50	58	0 (0-10)	0 (0-10)	0 (0-10)	0 (0-10)	–	–	–
